Measurements reported in patent US9237988B2, “Benzalkonium chloride compositions for inhibiting the hydrolytic activity of endogenous matrix metalloproteinases in dental restorations” (Bisco, Inc., priority 2010, dated 2016).

Biological target: MMP-9 enzymes (Homo sapiens, UniProt P14780)
Assay: MMP inhibition after incubation with MMP-9 enzymes, Anaspec SensoLyte Generic MMP Assay Kit
Assay type: biochemical
Details: for Percent MMP Inhibition at 1 Hour / Percent MMP Inhibition at 4 Hours: aqueous solution; for Percent MMP Inhibition at 1 Hour: 1 hour incubation; for Percent MMP Inhibition at 4 Hours: 4 hours incubation
Procedure: According to another presently expected one exemplary embodiment of the present application, multiple benzalkonium chloride dental solutions were prepared in aqueous solutions in concentrations varying from 0.02% to 2%, and were incubated with MMP-9 enzymes for 4 hours. After both 1 and 4 hours of incubation, standard negative and positive controls were compared to the below concentrations of the test compositions using an Anaspec SensoLyte Generic MMP Assay Kit (#72095, Anaspec, Fremont, Calif., USA), with the resulting MMP inhibitions shown in Tables 1 and 2 below.

[1] = 0.5% BAC by weight, listed as benzalkonium chloride

Sequence of MMP-9 enzymes (P14780 94-707): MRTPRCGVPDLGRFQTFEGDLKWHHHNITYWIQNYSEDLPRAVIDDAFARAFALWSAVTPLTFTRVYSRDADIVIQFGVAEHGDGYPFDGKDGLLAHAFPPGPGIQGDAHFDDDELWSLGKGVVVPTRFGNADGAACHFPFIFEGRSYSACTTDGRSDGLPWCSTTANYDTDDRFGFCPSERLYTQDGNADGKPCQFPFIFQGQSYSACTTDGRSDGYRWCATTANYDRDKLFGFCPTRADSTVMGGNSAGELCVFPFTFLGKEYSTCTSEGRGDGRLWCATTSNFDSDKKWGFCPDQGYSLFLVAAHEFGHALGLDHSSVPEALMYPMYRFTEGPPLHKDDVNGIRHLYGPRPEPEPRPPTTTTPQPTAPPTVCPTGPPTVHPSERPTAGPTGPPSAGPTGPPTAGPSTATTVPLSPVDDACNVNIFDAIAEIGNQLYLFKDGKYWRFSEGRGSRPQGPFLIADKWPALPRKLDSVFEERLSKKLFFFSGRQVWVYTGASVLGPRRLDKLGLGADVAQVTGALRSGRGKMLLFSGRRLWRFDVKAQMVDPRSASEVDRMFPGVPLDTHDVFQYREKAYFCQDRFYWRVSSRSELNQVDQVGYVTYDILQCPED

Q: What does the source list for benzalkonium chloride [BAC]?
A: Percent MMP Inhibition at 1 Hour (0.02% BAC by weight): 0%; Percent MMP Inhibition at 4 Hours (0.02% BAC by weight): 3%; Percent MMP Inhibition at 1 Hour (0.05% BAC by weight): 0%; Percent MMP Inhibition at 4 Hours (0.05% BAC by weight): 6%; Percent MMP Inhibition at 1 Hour (0.5% BAC by weight): 96.5%; Percent MMP Inhibition at 1 Hour [1]: 96%; Percent MMP Inhibition at 4 Hours (0.5% BAC by weight): 85%; Percent MMP Inhibition at 4 Hours [1]: at least 85%; Percent MMP Inhibition at 1 Hour (1.0% BAC by weight): 98.3%; Percent MMP Inhibition at 4 Hours (1.0% BAC by weight): 95%; Percent MMP Inhibition at 1 Hour (2.0% BAC by weight): 100%; Percent MMP Inhibition at 4 Hours (2.0% BAC by weight): 100%; MMP inhibition (concentration as low as 0.02% by weight, time not stated): displayed MMP inhibition
